According to patent publication US20260285853A1, “COMPOUNDS AND METHODS FOR MODULATING SPLICING” (REMIX THERAPEUTICS INC., priority 2023, published 2026):

Columns and labels:
Type in all cases: cell-based
HTT mRNA [1] = assay: Splicing RT-qPCR assay (THP), Table 2A; details: Table 2A (THP); for AC50: AJ mRNA increase, read-out: HTT AJ (increase in alternative junction mRNA, AC50); for IC50: CJ mRNA decrease, read-out: HTT CJ (decrease in canonical junction mRNA, IC50)
MYB mRNA [2] = assay: Splicing RT-qPCR assay (THP), Table 2A; details: Table 2A (THP); for AC50: AJ mRNA increase, read-out: MYB AJ (increase in alternative junction mRNA, AC50); for IC50: CJ mRNA decrease, read-out: MYB CJ (decrease in canonical junction mRNA, IC50)
HTT mRNA [3] = assay: Gene panel canonical junction qPCR assay, decrease in CJ mRNA, Table 3; details: decrease in canonical junction (CJ) mRNA, gene panel qPCR, Table 3
Method in brief: (§1)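 Eleven-point dose responses from 10 uM final, 24 h, DMSO ≤0.25%, in A673 or K562 cells. Relative quantification by 2^(−ΔΔCt) against housekeeper and vehicle was converted to percent response over fixed ΔCt windows and fitted to yield IC50.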

MYB mRNA [4] = assay: as above; details: decrease in canonical junction (CJ) mRNA, gene panel qPCR, Table 3
Method in brief: as §1

[5] = system: SH-SY5Y (human neuroblastoma) cells; assay: Cell viability, Cell Titer Glo 2.0 assay; details: read-out: Viability SHSY5Y.3 GI50
Method in brief: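 Following a 72 h incubation (37 °C, 5% CO2, 0.1% DMSO final), compound toxicity toward SH-SY5Y cells was quantified by CellTiter-Glo 2.0.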

IC50 (HTT mRNA [1])	IC50 (MYB mRNA [2])	IC50 (HTT mRNA [3])	IC50 (MYB mRNA [4])	GI50 [5]	SMILES	AC50 (HTT mRNA [1])	AC50 (MYB mRNA [2])
1000 to 10000 nM	1000 to 10000 nM	1000 to 10000 nM	1000 to 10000 nM	1000 to 10000 nM	CCNC1CCN(c2ccc(C(=O)Nc3cn4cc(C)nc(C)c4c3F)c3nn(C)cc23)CC1 [Compound 523, 4-[4-(ethylamino)-1-piperidyl]-N-(8-fluoro-1,3-dimethyl-pyrrolo[1,2-a]pyrazin-7-yl)-2-methyl-indazole-7-carboxamide]	1000 to 10000 nM	1000 to 10000 nM
1000 to 10000 nM	< 100 nM	1000 to 10000 nM	< 100 nM	100 to 1000 nM	COc1nc2nc(C)cn2cc1NC(=O)c1ccc(N2CCC(NC3CC3)CC2)c2cn(C)nc12 [Compound 524, 4-[4-(cyclopropyl-amino)-1-piperidyl]-N-(7-methoxy-2-methylimidazo-[1,2-a]-pyrimidin-6-yl)-2-methyl-indazole-7-carboxamide]	1000 to 10000 nM	< 100 nM
1000 to 10000 nM	1000 to 10000 nM	1000 to 10000 nM	1000 to 10000 nM	1000 to 10000 nM	Cc1cn2cc(NC(=O)c3ccc(N4CC5CNCC5C4)c4cn(C)nc34)nc2c(C)n1 (centres unmarked) [Compound 526]	1000 to 10000 nM	1000 to 10000 nM
100 to 1000 nM	100 to 1000 nM	100 to 1000 nM	100 to 1000 nM	100 to 1000 nM	CNCC1CCN(c2ccc(C(=O)Nc3cn4cc(C)nc(C)c4n3)c3nn(C)cc23)C1 (centres unmarked) [Compound 527]	100 to 1000 nM	100 to 1000 nM
100 to 1000 nM	100 to 1000 nM	100 to 1000 nM	100 to 1000 nM	100 to 1000 nM	Cc1cn2cc(NC(=O)c3ccc(N4CCC(N5CCNCC5)C4)c4cn(C)nc34)nc2c(C)n1 (centres unmarked) [Compound 528]	100 to 1000 nM	100 to 1000 nM
> 10000 nM	100 to 1000 nM	> 10000 nM	100 to 1000 nM	1000 to 10000 nM	Cc1cn2cc(NC(=O)c3ccc(N4CCC5(CCCN5)CC4)c4cn(C)nc34)nc2c(C)n1 [Compound 529]	> 10000 nM	100 to 1000 nM
> 10000 nM	1000 to 10000 nM	> 10000 nM	1000 to 10000 nM	> 10000 nM	Cc1cn2cc(NC(=O)c3ccc(N4CCC5NCC5C4)c4cn(C)nc34)nc2c(C)n1 (centres unmarked) [Compound 530]	> 10000 nM	> 10000 nM
> 10000 nM	1000 to 10000 nM	> 10000 nM	1000 to 10000 nM	1000 to 10000 nM	Cc1cn2cc(NC(=O)c3ccc(N4CCC5NCCC5C4)c4cn(C)nc34)nc2c(C)n1 (centres unmarked) [Compound 531]	> 10000 nM	1000 to 10000 nM
100 to 1000 nM	100 to 1000 nM	100 to 1000 nM	100 to 1000 nM	100 to 1000 nM	CNCC1CCN(c2ccc(C(=O)Nc3cn4cc(C)nc(C)c4n3)c3nn(C)cc23)CC1 [Compound 532]	100 to 1000 nM	100 to 1000 nM
100 to 1000 nM	100 to 1000 nM	100 to 1000 nM	100 to 1000 nM	100 to 1000 nM	Cc1cn2cc(NC(=O)c3ccc(N4CCN(C5CNC5)CC4)c4cn(C)nc34)nc2c(C)n1 [Compound 533]	100 to 1000 nM	100 to 1000 nM
> 10000 nM	> 10000 nM	> 10000 nM	> 10000 nM	> 10000 nM	CNCC1CCCN(c2ccc(C(=O)Nc3cn4cc(C)nc(C)c4n3)c3nn(C)cc23)C1 (centres unmarked) [Compound 534]	> 10000 nM	> 10000 nM
1000 to 10000 nM	1000 to 10000 nM	1000 to 10000 nM	1000 to 10000 nM	1000 to 10000 nM	Cc1cn2cc(NC(=O)c3ccc(N4CCNC(C)CC4)c4cn(C)nc34)nc2c(C)n1 (centres unmarked) [Compound 535]	1000 to 10000 nM	1000 to 10000 nM
> 10000 nM	> 10000 nM	> 10000 nM	> 10000 nM	> 10000 nM	Cc1cn2cc(NC(=O)c3ccc(NC4CCCNCC4)c4cn(C)nc34)nc2c(C)n1 (centres unmarked) [Compound 536]	> 10000 nM	> 10000 nM
> 10000 nM	100 to 1000 nM	> 10000 nM	100 to 1000 nM	1000 to 10000 nM	CNCC1CCN(c2ccc(C(=O)Nc3cc4cn(C)nc4cc3OC)c3nn(C)cc23)C1 (centres unmarked) [Compound 538]	> 10000 nM	100 to 1000 nM

Continued, compound first:

SMILES	IC50 (HTT mRNA [1])	IC50 (MYB mRNA [2])	IC50 (HTT mRNA [3])	IC50 (MYB mRNA [4])	GI50 [5]	AC50 (HTT mRNA [1])	AC50 (MYB mRNA [2])
COc1cc2nn(C)cc2cc1NC(=O)c1ccc(N2CCC(NC3CC3)CC2)c2c(CO)n(C)nc12 [Compound 522, 4-[4-(cyclopropylamino)-1-piperidyl]-3-(hydroxymethyl)-N-(6-methoxy-2-methyl-indazol-5-yl)-2-methyl-indazole-7-carboxamide]	1000 to 10000 nM	1000 to 10000 nM	1000 to 10000 nM	1000 to 10000 nM	1000 to 10000 nM	1000 to 10000 nM	1000 to 10000 nM
Cc1cn2cc(NC(=O)c3ccc(OC4CCNC4)c4cn(C)nc34)nc2c(C)n1 (centres unmarked) [Compound 537]	> 10000 nM	> 10000 nM	> 10000 nM	> 10000 nM	> 10000 nM	> 10000 nM	> 10000 nM
COc1cc2nn(C)cc2cc1NC(=O)c1ccc(N2CCC(N3CCNCC3)C2)c2cn(C)nc12 (centres unmarked) [Compound 539]	> 10000 nM	> 10000 nM	> 10000 nM	> 10000 nM	> 10000 nM	1000 to 10000 nM	> 10000 nM
COc1cc2nn(C)cc2cc1NC(=O)c1ccc(N2CCC3(CCN3)CC2)c2cn(C)nc12 [Compound 540]	1000 to 10000 nM	< 100 nM	1000 to 10000 nM	< 100 nM	1000 to 10000 nM	1000 to 10000 nM	< 100 nM
COc1cc2nn(C)cc2cc1NC(=O)c1ccc(N2CCC3(CCCN3)CC2)c2cn(C)nc12 [Compound 541]	100 to 1000 nM	< 100 nM	100 to 1000 nM	< 100 nM	1000 to 10000 nM	100 to 1000 nM	< 100 nM
COc1cc2nn(C)cc2cc1NC(=O)c1ccc(N2CCC3NCC3C2)c2cn(C)nc12 (centres unmarked) [Compound 542]	> 10000 nM	1000 to 10000 nM	> 10000 nM	1000 to 10000 nM	> 10000 nM	> 10000 nM	100 to 1000 nM
COc1cc2nn(C)cc2cc1NC(=O)c1ccc(N2CCC3NCCC3C2)c2cn(C)nc12 (centres unmarked) [Compound 543]	1000 to 10000 nM	100 to 1000 nM	1000 to 10000 nM	100 to 1000 nM	1000 to 10000 nM	1000 to 10000 nM	100 to 1000 nM
COc1cc2nn(C)cc2cc1NC(=O)c1ccc(N2CCN(C3CNC3)CC2)c2cn(C)nc12 [Compound 544]	100 to 1000 nM	100 to 1000 nM	100 to 1000 nM	100 to 1000 nM	100 to 1000 nM	100 to 1000 nM	100 to 1000 nM
CNCC1CCCN(c2ccc(C(=O)Nc3cc4cn(C)nc4cc3OC)c3nn(C)cc23)C1 (centres unmarked) [Compound 545]	> 10000 nM	1000 to 10000 nM	> 10000 nM	1000 to 10000 nM	1000 to 10000 nM	> 10000 nM	1000 to 10000 nM
